Reference: US20150306081A1, “Chemotherapy for Drug-Resistant Cancer Cells” (THE UNIVERSITY OF SYDNEY, priority 2012, published 2015)
Like-named read-outs stand apart in the source and are kept apart here.

Experiments:
[1] = test system: Pgp-expressing KBV1 cells; assay: MTT proliferation assay, KBV1 cells; assay type: cell-based, Human; conditions: for IC50: Homo sapiens, KB-V1, 72 h incubation; for IC50 / change of cytotoxicity in presence of Pgp inhibitors Val or Ela: KBV1 cells; for change of cytotoxicity in presence of Pgp inhibitors Val or Ela: Val 1 μM, Ela 0.1 μM, 72 h; for increase in resistance of KBV1 cells compared to KB31 cells: ratio of IC50, 72 h
[2] = test system: Pgp expressing 2008/P200A cells; assay: MTT proliferation assay, 2008/P200A cells; assay type: cell-based; conditions: for sensitivity of 2008/P200A cells compared to 2008 cells: 72 h; for change of cytotoxicity in presence of Pgp inhibitors Val or Ela: 2008/P200A cells, Val 1 μM, Ela 0.1 μM
Method: (§1) The 2008 ovarian carcinoma cell line and the PAC-resistant 2008/P200A cell line (grown in 200 ng/mL of PAC) were kindly provided by Dr. John Allen (Centenary Institute, Sydney, Australia). Cells were grown in Dulbecco's modified Eagle's medium (DMEM; Life Technologies) with 10% (v/v) fetal calf serum (Sigma-Aldrich, St. Louis, Mo.) and supplemented with the following additions from Life Technologies: 1% (v/v) sodium pyruvate, 1% (v/v) non-essential amino acids, 100 U/mL penicillin, 100 μg/mL streptomycin, 2 mM L-glutamine and 0.28 μg/mL fungizone. The cells were then incubated at 37° C. in a humidified atmosphere of 5% CO2 and 95% air.
(§2) The effect of anti-cancer agents on cellular proliferation was examined using the MTT [3-(4,5-dimethylthiazol-2-yl)-2,5-diphenyl tetrazolium] method. In this assay, 3×10^3 cells/well were seeded in 96-well plates in 100 μL of media. The next day, serially diluted drugs of interest were added. […] The cells were incubated at 37° C. in a humidified atmosphere containing 5% CO2 and 95% air for 72 h. After this incubation, 10 μL of MIT (5 mg/mL) was added to each well and the incubation continued at 37° C. for 2 h. After solubilization of the cells with 100 μL of 10% SDS-50% isobutanol in 10 mM HCl, the plates were read at 570 nm using a scanning multi-well spectrophotometer (Victor™ Multilabel Counter plate reader; Perkin Elmer, Australia). Results were analyzed to calculate the concentration of chelator or complex necessary to reduce the absorbance to 50% (IC50) of the control.

[3] = molecular target: T1, Pgp (Homo sapiens, UniProt P08183); assay: Pgp-ATPase activity assay (Pgp-Glo)
T1 sequence (P08183 whole entry): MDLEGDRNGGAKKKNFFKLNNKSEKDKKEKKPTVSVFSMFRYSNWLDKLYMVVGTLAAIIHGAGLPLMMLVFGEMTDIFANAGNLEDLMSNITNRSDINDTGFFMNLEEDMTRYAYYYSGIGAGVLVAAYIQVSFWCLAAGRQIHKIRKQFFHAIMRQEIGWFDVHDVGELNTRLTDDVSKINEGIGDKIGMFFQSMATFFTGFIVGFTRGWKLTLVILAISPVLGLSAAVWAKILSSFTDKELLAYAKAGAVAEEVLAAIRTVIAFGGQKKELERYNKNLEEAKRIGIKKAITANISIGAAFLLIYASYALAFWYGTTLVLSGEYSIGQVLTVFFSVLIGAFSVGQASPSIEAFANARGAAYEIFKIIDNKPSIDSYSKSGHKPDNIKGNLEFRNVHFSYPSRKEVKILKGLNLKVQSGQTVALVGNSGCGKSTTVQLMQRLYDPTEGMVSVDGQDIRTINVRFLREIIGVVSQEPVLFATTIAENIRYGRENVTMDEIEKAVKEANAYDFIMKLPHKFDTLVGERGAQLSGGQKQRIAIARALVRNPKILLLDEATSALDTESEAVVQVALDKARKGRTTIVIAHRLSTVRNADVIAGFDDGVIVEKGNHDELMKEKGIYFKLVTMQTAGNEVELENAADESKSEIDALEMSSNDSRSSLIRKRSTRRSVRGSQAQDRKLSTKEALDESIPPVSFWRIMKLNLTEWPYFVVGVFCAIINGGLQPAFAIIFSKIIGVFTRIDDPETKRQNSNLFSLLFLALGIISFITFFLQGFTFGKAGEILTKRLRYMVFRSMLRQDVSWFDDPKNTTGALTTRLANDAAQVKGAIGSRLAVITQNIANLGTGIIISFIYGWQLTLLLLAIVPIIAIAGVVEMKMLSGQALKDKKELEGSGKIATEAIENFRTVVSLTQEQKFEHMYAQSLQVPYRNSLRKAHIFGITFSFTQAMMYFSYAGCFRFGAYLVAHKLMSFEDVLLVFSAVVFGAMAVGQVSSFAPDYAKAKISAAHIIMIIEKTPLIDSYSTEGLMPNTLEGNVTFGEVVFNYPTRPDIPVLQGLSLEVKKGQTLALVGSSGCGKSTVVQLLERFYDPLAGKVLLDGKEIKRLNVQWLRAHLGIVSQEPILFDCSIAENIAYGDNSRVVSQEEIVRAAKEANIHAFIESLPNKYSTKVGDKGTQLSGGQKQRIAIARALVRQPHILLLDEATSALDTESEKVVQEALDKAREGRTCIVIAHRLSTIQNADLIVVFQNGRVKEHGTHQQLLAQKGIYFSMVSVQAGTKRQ
Method: The ATPase activities of Pgp were determined using Pgp-enriched membranes and a luminescent ATP detection kit (Pgp-Glo Assay Kit, Promega, USA) according to the manufacturer's instructions. Briefly, Pgp membranes (0.5 mg/mL) and Mg(II)-ATP (5 mM) were incubated in the absence or presence of sodium orthovanadate (100 μM) for 40 min/37° C. and ATP detected as a luciferase-generated luminescent signal. Basal Pgp-ATPase activities were determined as the difference between the ATP hydrolysis in the presence or absence of sodium orthovanadate. Verapamil-stimulated Pgp-ATPase activity was measured in the presence of the Pgp control substrate, verapamil (200 μM).
Test substrates (Dp44mT and Bp4eT) of interest were dissolved in dimethyl sulfoxide. The final concentration of DMSO in the assay medium was less than 1%.
The Pgp Glo™ ATPase assay (Promega, Madison, Wis.) was used to assess if Dp44mT and Bp4eT are substrates of Pgp. The ATPase assay measures the Pgp-mediated ATPase activity of Pgp by quantitating ATP consumption in the presence of the compounds of interest after incubation with purified membrane proteins containing high levels of Pgp. […] The basal ATPase activity of Pgp is compared to the ATPase activity stimulated or inhibited by the compounds of interest.

[4] = Redox studies: oxidation of H2DCF, cell-free
Method: These studies were conducted in an acetate buffer (150 mM; pH 5) containing cysteine (100 μM) to mimic lysosomal conditions. In these experiments, hydrogen peroxide (100 μM) was added to initiate ROS generation.

[5] = test system: KBV1 cells; assay: Lysosomal integrity, acridine orange flow cytometry, KBV1 cells; assay type: cell-based, Human; conditions: 30 min incubation
Method: Lysotracker® red (Life Technologies) and acridine orange (Sigma-Aldrich) are dyes showing high specificity for lysosomes and were used to determine lysosomal membrane permeability (LMP). The Lysotracker® red was visually assessed by fluorescence microscopy utilizing a Zeiss Axio Observer.Z1 Fluorescence Microscope equipped with an AxioCam camera (Zeiss, Oberkochen, Germany) and acridine orange was quantified by flow cytometry (see below).
Briefly, cells were incubated with Lysotracker® red (50 nM) for 15 min/37° C. or acridine orange (20 nM) for 15 min/37° C., washed on ice 3 times with ice-cold PBS and then incubated with Cu[Dp44mT] (25 μM) for 30 min/37° C. or Dp44mT alone (25 μM) for 30 min or 24 h/37° C.
(§3) The dyes, Rh123 and acridine orange were detected with the FACS Canto flow cytometer (BD Biosciences) and 10,000 events were acquired for every sample. Data analysis was performed using FlowJo software, version 7.5.5 (Tree Star Inc., Ashland, OR).

[6] = test system: KBV1 cells; assay: MTT cytotoxicity after transient knockdown of Pgp (MDR1 siRNA) in KBV1 cells; assay type: cell-based, Human; conditions: Pgp siRNA vs. Scr siRNA, 72 h
Method: as §2
For all siRNA treatments against MDR1 (MDR1-siRNA; Cat #: 4123, Life Technologies), a siRNAlipofectamine mixture (50 nM MDR1 siRNA and 1/400 lipofectamine 2000) was added to the cells (at 30% confluency) and incubated for 72 h/37° C. prior to further experimentation. The effectiveness of Pgp knockdown was confirmed using western blot and also assessing DOX cytotoxicity via the MTT assay. As a control, scrambled siRNA (Scr siRNA; Life Technologies) was used at the same concentration as MDR1 siRNA.

[7] = test system: non-Pgp expressing KB31 cells; assay: Uptake of radio-labeled drug, KB31 cells; assay type: cell-based, Human; conditions: Val 1 μM or Ela 0.1 μM pre-incubation, versus control
Method: (§4) For the uptake assay, each 35 mm culture dish containing 5×10^5 cells was incubated with ^14C-doxorubicin, ^3H-vinblastine or ^14C-Dp44mT (all at 1 μCi) for 30 min/37° C. Cells were then washed on ice three times with ice-cold PBS and collected for analysis. Drug uptake was calculated as the number of drug molecules/cell. […] For studies using lysosomotropic agents, cells were pre-incubated with NH4Cl (5 mM), CLQ (100 μM) or MA (100 μM) for 30 min/37° C. prior to ^14C-Dp44mT uptake. […] For efflux assays, the same labeling procedure was conducted as in the uptake assay. […] After this procedure, the overlying media was removed using a Pasteur pipette and then placed in a counting vial. The cells were removed from the plate in 1 mL of PBS and then dispensed into a separate counting vial. The radiolabeled-drug efflux was calculated as a percentage of the total drug uptake by the cells found at zero time.

[8] = test system: Pgp-expressing KBV1 cells; assay: Uptake of radio-labeled drug, KBV1 cells; assay type: cell-based, Human; conditions: for effect of Pgp inhibitors Val and Ela on uptake: KBV1 cells, Val 1 μM or Ela 0.1 μM pre-incubation, versus control
Method: as §4, with “Cells” for “For the uptake assay, each 35 mm culture dish containing 5×10^5 cells was incubated with ^14C-doxorubicin, ^3H-vinblastine or ^14C-Dp44mT (all at 1 μCi) for 30 min/37° C. Cells”, “vial.” for “vial. The radiolabeled-drug efflux was calculated as a percentage of the total drug uptake by the cells found at zero time.”

[9] = test system: non-Pgp expressing KB31 cells; assay: MTT proliferation assay, KB31 cells; assay type: cell-based, Human; conditions: for IC50: Homo sapiens, KB 3-1, 72 h incubation; for change of cytotoxicity in presence of Pgp inhibitors Val or Ela: Val 1 μM, Ela 0.1 μM, 72 h
[10] = test system: non-Pgp expressing 2008 cells; assay: MTT proliferation assay, 2008 cells; assay type: cell-based; conditions: for change of cytotoxicity in presence of Pgp inhibitors Val or Ela: 2008 cells, Val 1 μM, Ela 0.1 μM; for sensitivity of 2008 cells: compared to 2008/P200A cells
Method: as §1, §2

[11] = test system: non-Pgp expressing KB31 cells; assay: Rhodamine 123 accumulation assay, KB31 cells; assay type: cell-based, Human; conditions: increased concentrations
Method: Cells were then harvested and resuspended in ice-cold PBS and kept on ice until flow cytometric analysis (see below).
as §3

[12] = test system: Pgp-expressing cells; conditions: reported by others; cited from earlier work
[13] = molecular target: T1, Pgp; design: purchased Promega; conditions: reported by others, biochemical assays; cited from earlier work

## CCNC(=S)NN=C(c1ccccc1)c1ccccn1 [Bp4eT, 2-benzoylpyridine-4-ethyl-3-thiosemicarbazone]
[1]
  more cytotoxic in drug-resistant KBV1 cells compared to KB31 cells: 6.7 fold
[2]
  sensitivity of 2008/P200A cells compared to 2008 cells: significantly (p<0.001) increased sensitivity
[3]; relative to basal activity
  Pgp-ATPase activity (in words): significant (p<0.001) stimulation of ATPase activity

## [Cl][Cu][Cl] [CuCl2, copper(II) chloride]
[4]; acetate buffer pH 5, cysteine, H2O2, over 12 min
  redox activity (H2DCF oxidation): no activity
[5]
  lysosomal integrity (acridine orange): did not compromise lysosomal integrity
[3]
  Pgp-ATPase activity (in words): Neither FeCl3 nor CuCl2 significantly stimulated ATPase activity

## COc1cccc2c1C(=O)c1c(O)c3c(c(O)c1C2=O)C[C@@](O)(C(=O)CO)C[C@@H]3O[C@H]1C[C@H](N)[C@H](O)[C@H](C)O1 [DOX, Doxorubicin]
[1]
  IC50: 96.4 ± 10.1 µM
  change of cytotoxicity in presence of Pgp inhibitors Val or Ela: markedly sensitized
  increase in resistance of KBV1 cells compared to KB31 cells: 220 fold
[6]
  decrease of IC50 by knockdown of Pgp: 15 fold
[7]
  effect of Pgp inhibitors Val and Ela on uptake: did not significantly alter radiolabel uptake
[8]
  effect of Pgp inhibitors Val and Ela on uptake: significantly (p<0.001) increased the uptake
[8]; control groups, 1 μCi
  cellular accumulation in KBV1 cells relative to KB31 cells: significantly (p<0.001) less
[9]
  IC50: 440 ± 3 nM
  change of cytotoxicity in presence of Pgp inhibitors Val or Ela: no significant (p>0.05) change in cytotoxicity
[2]
  change of cytotoxicity in presence of Pgp inhibitors Val or Ela: abrogated the resistance
  sensitivity of 2008/P200A cells compared to 2008 cells: significantly higher resistance
[10]
  change of cytotoxicity in presence of Pgp inhibitors Val or Ela: did not significantly (p>0.05) affect the cytotoxicity
  sensitivity of 2008 cells: extremely sensitive

## COc1cc2c(cc1OC)CN(CCc1ccc(NC(=O)c3cccc4c(=O)c5cccc(OC)c5[nH]c34)cc1)CC2 [Ela, Elacridar]
[11]
  effect on Rh123 accumulation: no significant effect on Rh123 accumulation

## [Cl][Fe]([Cl])[Cl] [FeCl3]
[5]
  lysosomal integrity (acridine orange): did not compromise lysosomal integrity
[3]
  Pgp-ATPase activity (in words): Neither FeCl3 nor CuCl2 significantly stimulated ATPase activity

## COc1ccc(NC(=S)N=Nc2c(O)[nH]c3c(Cl)cc(Cl)cc23)cc1 [NSC73306]
[12]
  cytotoxicity to Pgp-expressing cells compared to parent cells: increased cytotoxicity to Pgp-expressing cells
[13]
  direct interaction with Pgp: no direct interaction

## CC[C@]1(O)C[C@@H]2CN(CCc3c([nH]c4ccccc34)[C@@](C(=O)OC)(c3cc4c(cc3OC)N(C)[C@H]3[C@@](O)(C(=O)OC)[C@H](OC(C)=O)[C@]5(CC)C=CCN6CC[C@]43[C@@H]65)C2)C1 [VBL, Vinblastine]
[1]
  IC50: 29.7 ± 1.77 µM
  change of cytotoxicity in presence of Pgp inhibitors Val or Ela: markedly sensitized
  increase in resistance of KBV1 cells compared to KB31 cells: 221 fold
[7]
  effect of Pgp inhibitors Val and Ela on uptake: did not significantly alter radiolabel uptake
[8]
  effect of Pgp inhibitors Val and Ela on uptake: significantly (p<0.001) increased the uptake
[9]
  IC50: 130 ± 4 nM
  change of cytotoxicity in presence of Pgp inhibitors Val or Ela: no significant (p>0.05) change in cytotoxicity
[2]
  change of cytotoxicity in presence of Pgp inhibitors Val or Ela: abrogated the resistance
  sensitivity of 2008/P200A cells compared to 2008 cells: significantly higher resistance
[10]
  change of cytotoxicity in presence of Pgp inhibitors Val or Ela: did not significantly (p>0.05) affect the cytotoxicity
  sensitivity of 2008 cells: extremely sensitive

## C/C=C/C[C@@H](C)C(=O)[C@H]1C(=O)N[C@@H](C(C)C)C(=O)N(C)CC(=O)N(C)[C@@H](CC(C)C)C(=O)N[C@@H](C(C)C)C(=O)N(C)[C@@H](CC(C)C)C(=O)N[C@@H](C)C(=O)N[C@H](C)C(=O)N(C)[C@@H](CC(C)C)C(=O)N(C)[C@@H](CC(C)C)C(=O)N(C)[C@@H](C(C)C)C(=O)N1C [Val, Valspodar]
[3]; Pgp-enriched membranes, 40 min
  decrease of ATPase activity relative to the basal control: 5 fold

## tetrathiolmolybdate [TM]
[4]; 5 μM, acetate buffer pH 5
  effect on redox activity / ROS generation of Cu[Dp44mT]: totally prevented
